# Results reported in ChEMBL document CHEMBL3885861, “Open TG-GATES”.
# Species on record: Rattus norvegicus
# Test: Open TG-GATES - Regimen: Single
# Format: toxicity, organism-based, Sprague-Dawley
# Parameters: regimen Single, gender Male, age 6 weeks
# Conditions: in vivo, po, route gavage; for APTT / Bas / Eos / Fbg / Hb / Ht / Lym / MCH / MCHC / MCV / Mono / Neu / Plat / RBC / Ret / WBC: tissue Blood; for KIDNEY_L / KIDNEY_R / KIDNEY_TOTAL: tissue Kidney; for LIVER: tissue Liver; for ALP / ALT / AST / CRE / DBIL / GLC / IP / K / LDH / Na / PL / RALB / TBIL / TC / TG / TP / gamma-GTP: tissue Plasma
# [1] = 0 mg/kg, 3 h, dose level Control
# [2] = 0 mg/kg, 6 h, dose level Control
# [3] = 0 mg/kg, 9 h, dose level Control
# [4] = 0 mg/kg, 24 h, dose level Control
smiles,measurement,setting,value
CN(C)CCC=C1c2ccccc2COc2ccccc21 [DOXEPIN],TERMINAL_BW,[1],197.6 g
same,APTT,[1],20.9 s
same,Bas,[1],0%
same,Eos,[1],0.8%
same,Fbg,[1],250.4 mg/dL
same,Hb,[1],13.6 g/dL
same,Ht,[1],41.4%
same,Lym,[1],77.4%
same,MCH,[1],21.2 pg
same,MCHC,[1],32.9%
same,MCV,[1],64.4 fL
same,Mono,[1],3.6%
same,Neu,[1],17.4%
same,Plat,[1],123.1 x10_4/uL
same,RBC,[1],644 x10_4/ul
same,Ret,[1],8.4%
same,WBC,[1],93.1 x10_2/uL
same,KIDNEY_L,[1],0.9 g
same,KIDNEY_R,[1],0.9 g
same,KIDNEY_TOTAL,[1],1.8 g
same,LIVER,[1],8.7 g
same,ALP,[1],1553 IU/L
same,ALT,[1],44 IU/L
same,AST,[1],77.8 IU/L
same,CRE,[1],0.2 mg/dL
same,DBIL,[1],0.006 mg/dL
same,GLC,[1],169.4 mg/dL
same,IP,[1],8.4 mg/dL
same,K,[1],4.2 meq/L
same,LDH,[1],84.6 IU/L
same,Na,[1],142.4 meq/L
same,PL,[1],140.8 mg/dL
same,RALB,[1],2.5 g/dL
same,TBIL,[1],0.056 mg/dL
same,TC,[1],74.8 mg/dL
same,TG,[1],58.2 mg/dL
same,TP,[1],5.3 g/dL
same,gamma-GTP,[1],1.2 IU/L
same,TERMINAL_BW,[2],196 g
same,APTT,[2],17.7 s
same,Bas,[2],0.2%
same,Eos,[2],0.8%
same,Fbg,[2],265.6 mg/dL
same,Hb,[2],13.6 g/dL
same,Ht,[2],41.4%
same,Lym,[2],79.2%
same,MCH,[2],21.8 pg
same,MCHC,[2],32.8%
same,MCV,[2],66.3 fL
same,Mono,[2],3%
same,Neu,[2],16.2%
same,Plat,[2],112.3 x10_4/uL
same,RBC,[2],624.8 x10_4/ul
same,Ret,[2],9.3%
same,WBC,[2],110.1 x10_2/uL
same,KIDNEY_L,[2],0.9 g
same,KIDNEY_R,[2],0.9 g
same,KIDNEY_TOTAL,[2],1.8 g
same,LIVER,[2],8.1 g
same,ALP,[2],1565.4 IU/L
same,ALT,[2],37.4 IU/L
same,AST,[2],77.2 IU/L
same,CRE,[2],0.2 mg/dL
same,DBIL,[2],0.004 mg/dL
same,GLC,[2],158.4 mg/dL
same,IP,[2],8.9 mg/dL
same,K,[2],4.1 meq/L
same,LDH,[2],80.2 IU/L
same,Na,[2],142.6 meq/L
same,PL,[2],143.6 mg/dL
same,RALB,[2],2.4 g/dL
same,TBIL,[2],0.06 mg/dL
same,TC,[2],76.4 mg/dL
same,TG,[2],49.2 mg/dL
same,TP,[2],5.3 g/dL
same,gamma-GTP,[2],1.2 IU/L
same,TERMINAL_BW,[3],195.7 g
same,APTT,[3],17.2 s
same,Bas,[3],0%
same,Eos,[3],1%
same,Fbg,[3],271.8 mg/dL
same,Hb,[3],13.2 g/dL
same,Ht,[3],39.9%
same,Lym,[3],77.8%
same,MCH,[3],21.5 pg
same,MCHC,[3],32.9%
same,MCV,[3],65.3 fL
same,Mono,[3],2.2%
same,Neu,[3],18.6%
same,Plat,[3],119.3 x10_4/uL
same,RBC,[3],612.4 x10_4/ul
same,Ret,[3],8.9%
same,WBC,[3],87 x10_2/uL
same,KIDNEY_L,[3],0.9 g
same,KIDNEY_R,[3],0.9 g
same,KIDNEY_TOTAL,[3],1.8 g
same,LIVER,[3],7.5 g
same,ALP,[3],1472.4 IU/L
same,ALT,[3],36.6 IU/L
same,AST,[3],71.2 IU/L
same,CRE,[3],0.2 mg/dL
same,DBIL,[3],0 mg/dL
same,GLC,[3],159.2 mg/dL
same,IP,[3],9.7 mg/dL
same,K,[3],3.9 meq/L
same,LDH,[3],95 IU/L
same,Na,[3],143 meq/L
same,PL,[3],125.8 mg/dL
same,RALB,[3],2.4 g/dL
same,TBIL,[3],0.058 mg/dL
same,TC,[3],70.6 mg/dL
same,TG,[3],33.6 mg/dL
same,TP,[3],5.3 g/dL
same,gamma-GTP,[3],1.2 IU/L
same,TERMINAL_BW,[4],214.2 g
same,APTT,[4],18.6 s
same,Bas,[4],0%
same,Eos,[4],1.2%
same,Fbg,[4],269 mg/dL
same,Hb,[4],13 g/dL
same,Ht,[4],38.8%
same,Lym,[4],76.4%
same,MCH,[4],21.7 pg
same,MCHC,[4],33.5%
same,MCV,[4],64.8 fL
same,Mono,[4],3%
same,Neu,[4],19%
same,Plat,[4],116.4 x10_4/uL
same,RBC,[4],600.2 x10_4/ul
same,Ret,[4],8.1%
same,WBC,[4],94.8 x10_2/uL
same,KIDNEY_L,[4],1 g
same,KIDNEY_R,[4],0.9 g
same,KIDNEY_TOTAL,[4],1.9 g
same,ALP,[4],2073 IU/L
same,ALT,[4],37.8 IU/L
same,AST,[4],75.6 IU/L
same,CRE,[4],0.2 mg/dL
same,DBIL,[4],0.004 mg/dL
same,GLC,[4],173.2 mg/dL
same,IP,[4],7.2 mg/dL
same,K,[4],4 meq/L
same,LDH,[4],106.6 IU/L
same,Na,[4],141.6 meq/L
same,PL,[4],153.8 mg/dL
same,RALB,[4],2.5 g/dL
same,TBIL,[4],0.04 mg/dL
same,TC,[4],80.2 mg/dL
same,TG,[4],89 mg/dL
same,TP,[4],5.6 g/dL
same,gamma-GTP,[4],1 IU/L
same,TERMINAL_BW,"100 mg/kg, 3 h, dose level Low",198.2 g
same,APTT,"100 mg/kg, 3 h, dose level Low",19.4 s
same,Bas,"100 mg/kg, 3 h, dose level Low",0%
same,Eos,"100 mg/kg, 3 h, dose level Low",1%
same,Fbg,"100 mg/kg, 3 h, dose level Low",282.4 mg/dL
same,Hb,"100 mg/kg, 3 h, dose level Low",13.1 g/dL
same,Ht,"100 mg/kg, 3 h, dose level Low",39.8%
same,Lym,"100 mg/kg, 3 h, dose level Low",79.6%
same,MCH,"100 mg/kg, 3 h, dose level Low",21.2 pg
same,MCHC,"100 mg/kg, 3 h, dose level Low",32.9%
same,MCV,"100 mg/kg, 3 h, dose level Low",64.4 fL
same,Mono,"100 mg/kg, 3 h, dose level Low",3%
same,Neu,"100 mg/kg, 3 h, dose level Low",16%
same,Plat,"100 mg/kg, 3 h, dose level Low",113.2 x10_4/uL
same,RBC,"100 mg/kg, 3 h, dose level Low",619.4 x10_4/ul
same,Ret,"100 mg/kg, 3 h, dose level Low",8.6%
same,WBC,"100 mg/kg, 3 h, dose level Low",80.4 x10_2/uL
same,KIDNEY_L,"100 mg/kg, 3 h, dose level Low",0.9 g
same,KIDNEY_R,"100 mg/kg, 3 h, dose level Low",0.9 g
same,KIDNEY_TOTAL,"100 mg/kg, 3 h, dose level Low",1.8 g
same,LIVER,"100 mg/kg, 3 h, dose level Low",8.6 g
same,ALP,"100 mg/kg, 3 h, dose level Low",1626.2 IU/L
same,ALT,"100 mg/kg, 3 h, dose level Low",39.4 IU/L
same,AST,"100 mg/kg, 3 h, dose level Low",69.2 IU/L
same,CRE,"100 mg/kg, 3 h, dose level Low",0.2 mg/dL
same,DBIL,"100 mg/kg, 3 h, dose level Low",0 mg/dL
same,GLC,"100 mg/kg, 3 h, dose level Low",182 mg/dL
same,IP,"100 mg/kg, 3 h, dose level Low",8.9 mg/dL
same,K,"100 mg/kg, 3 h, dose level Low",4.1 meq/L
same,LDH,"100 mg/kg, 3 h, dose level Low",82 IU/L
same,Na,"100 mg/kg, 3 h, dose level Low",143.8 meq/L
same,PL,"100 mg/kg, 3 h, dose level Low",159.6 mg/dL
same,RALB,"100 mg/kg, 3 h, dose level Low",2.5 g/dL
same,TBIL,"100 mg/kg, 3 h, dose level Low",0.046 mg/dL
same,TC,"100 mg/kg, 3 h, dose level Low",83.8 mg/dL
same,TG,"100 mg/kg, 3 h, dose level Low",57 mg/dL
same,TP,"100 mg/kg, 3 h, dose level Low",5.4 g/dL
same,gamma-GTP,"100 mg/kg, 3 h, dose level Low",1 IU/L
same,TERMINAL_BW,"100 mg/kg, 6 h, dose level Low",197.6 g
same,APTT,"100 mg/kg, 6 h, dose level Low",16.2 s
same,Bas,"100 mg/kg, 6 h, dose level Low",0%
same,Eos,"100 mg/kg, 6 h, dose level Low",1%
same,Fbg,"100 mg/kg, 6 h, dose level Low",282.2 mg/dL
same,Hb,"100 mg/kg, 6 h, dose level Low",13.1 g/dL
same,Ht,"100 mg/kg, 6 h, dose level Low",40.1%
same,Lym,"100 mg/kg, 6 h, dose level Low",75.8%
same,MCH,"100 mg/kg, 6 h, dose level Low",21.7 pg
same,MCHC,"100 mg/kg, 6 h, dose level Low",32.8%
same,MCV,"100 mg/kg, 6 h, dose level Low",66.4 fL
same,Mono,"100 mg/kg, 6 h, dose level Low",2.4%
same,Neu,"100 mg/kg, 6 h, dose level Low",20.2%
same,Plat,"100 mg/kg, 6 h, dose level Low",119.3 x10_4/uL
same,RBC,"100 mg/kg, 6 h, dose level Low",603.6 x10_4/ul
same,Ret,"100 mg/kg, 6 h, dose level Low",9.7%
same,WBC,"100 mg/kg, 6 h, dose level Low",94.4 x10_2/uL
same,KIDNEY_L,"100 mg/kg, 6 h, dose level Low",0.9 g
same,KIDNEY_R,"100 mg/kg, 6 h, dose level Low",0.9 g
same,KIDNEY_TOTAL,"100 mg/kg, 6 h, dose level Low",1.8 g
same,LIVER,"100 mg/kg, 6 h, dose level Low",8.1 g
same,ALP,"100 mg/kg, 6 h, dose level Low",1532.8 IU/L
same,ALT,"100 mg/kg, 6 h, dose level Low",37.4 IU/L
same,AST,"100 mg/kg, 6 h, dose level Low",71.4 IU/L
same,CRE,"100 mg/kg, 6 h, dose level Low",0.2 mg/dL
same,DBIL,"100 mg/kg, 6 h, dose level Low",0.004 mg/dL
same,GLC,"100 mg/kg, 6 h, dose level Low",175.2 mg/dL
same,IP,"100 mg/kg, 6 h, dose level Low",9.5 mg/dL
same,K,"100 mg/kg, 6 h, dose level Low",4 meq/L
same,LDH,"100 mg/kg, 6 h, dose level Low",71.6 IU/L
same,Na,"100 mg/kg, 6 h, dose level Low",144.6 meq/L
same,PL,"100 mg/kg, 6 h, dose level Low",140.6 mg/dL
same,RALB,"100 mg/kg, 6 h, dose level Low",2.5 g/dL
same,TBIL,"100 mg/kg, 6 h, dose level Low",0.054 mg/dL
same,TC,"100 mg/kg, 6 h, dose level Low",79.4 mg/dL
same,TG,"100 mg/kg, 6 h, dose level Low",27.2 mg/dL
same,TP,"100 mg/kg, 6 h, dose level Low",5.3 g/dL
same,gamma-GTP,"100 mg/kg, 6 h, dose level Low",1 IU/L
